What was measured:
Assay type in all cases: in vivo, human
plasma GL-3 = assay: Fabry: matched comparison with historical phase 3 trial of agalsidase beta; conditions: Fabry males, 15 mg/day oral
Text: Mean ages were similar across the three groups.

[1] = system: plasma GL-1, GL-3, and GM3; assay: Phase 1 Study 2: pharmacodynamics
Procedure: The study enrolled and randomized 36 healthy adults (19 men and 17 women) (n=9 each to group).
Pharmacodynamic endpoints (plasma GL-1, GL-3, and GM3 concentrations) were assessed on Days 1-5, 8, 11, 13, and 14, at 0 hours […]; and on Day 15, at 24 hours after the Day 14 dose.

[2] = Phase 1 Study 1 Part 2: PK with and without a high-fat meal; conditions: healthy men, single oral 5 mg, fed vs fasting
Text: (§1) Study 1 was a 2-part single-center trial in healthy adult male volunteers.
(§2) After a 7-day washout period, participants were crossed over to the other condition.

[3] = Phase 1 studies: safety profile
Procedure: In all studies, safety profile was assessed by monitoring treatment-emergent adverse events (TEAEs) through 10 days after last dose of study medication, including serious adverse events [SAEs]), ECG monitoring, laboratory values, and physical examinations.

[4] = system: adult patients with Gaucher disease Type 3; assay: GD3 clinical study: interstitial lung disease by high-resolution CT; conditions: after 26 weeks; GD3, 15 mg/day oral + imiglucerase
Procedure: (§3) During the study patients were evaluated for safety and tolerability, CSF and plasma biomarkers (glucosylceramide, GL-1; glucosylsphingosine, lyso-GL1), pharmacokinetics, markers for systemic disease (spleen and liver volume measured by magnetic resonance imaging (MRI), platelet count, hemoglobin levels), indicia of interstitial lung disease (high resolution pulmonary computed tomography (CT)), and horizontal saccadic eye movement.
Severity of interstitial lung disease was characterized by the percent of lung volume affect by ILD as measured by high-resolution CT in four lung regions (aortic arch, carina, lower zone L3, lower zone L4). Patients were rated as having severe ILD (51-100% of lung volume affected), moderate ILD (26-50% of lung volume affected), mild ILD (1-25% of lung volume affected) or normal (0% of lung volume showing ILD).

[5] = Phase 1 Study 1 Part 1: ascending single-dose pharmacokinetics; conditions: healthy men, fasted
Text: as §1
Part 1 of the study enrolled and randomized 55 healthy men (placebo, n=14; 2-, 5-, 15, 25-, 50, and 100-mg doses, n=6 each; 150-mg dose, n=5). Eight healthy men participated in Part 2.
as §2

[6] = Phase 1 Study 2: ascending repeated-dose pharmacokinetics
[7] = system: GL-3 inclusions in skin cells; assay: Fabry clinical study: skin GL-3 inclusion score by light microscopy; conditions: Fabry males
Procedure: A three-year open-label investigation of Compound 2 in young classic Fabry disease patients was conducted in order to evaluate the long-term safety, pharmacodynamics and exploratory efficacy of Compound 2 in adult male Fabry patients. Eleven subjects enrolled in the study, and seven subjects completed all aspects of the study. All subjects were males diagnosed with classic Fabry disease confirmed by genotype and residual alpha-galactosidase activity below detection levels (9 of the 11 had nonsense mutation in the GLA gene). All subjects had lyso-GL3 levels in plasma of at least 65 ng/mL and had no prior Fabry disease-specific treatment. The median age of subject was 24 years (range 19-37).
Each sample was scored independently by 3 pathologists for the presence of GL-3 inclusions on a four-point scale, and rated as 0 (no/trace), 1 (mild), 2 (moderate), or 3 (severe) according to Eng et al., N. Engl. J. Med. 345:9-16 (2001). A single score per patient per time point was derived by taking the score rated by the majority of the three pathologists. If a majority score could not be derived, then the median score was used (resulting in some fractional scores). Plasma samples were also analyzed for GL-3, lyso-GL-3, GL-1 and GM3 at baseline and weeks 12, 26, 52 and 156. Pain scores and abdominal symptoms were analyzed at baseline and weeks 12, 26, 52, 104 and 156 using the SF-36 scoring protocol.

[8] = system: adult patients with Gaucher disease Type 3; assay: GD3 clinical study: markers for systemic disease (spleen volume, platelet count, hemoglobin); conditions: GD3, 15 mg/day oral + imiglucerase
Procedure: as §3
Individual patient data for platelet counts are shown in the table below (shown as 10^9 platelets/L): […]

[9] = healthy volunteers, all Phase 1 studies
[10] = healthy adults, 5 mg once daily, Day 14
[11] = repeated once-daily doses from 5-20 mg

For `CC(C)(NC(=O)O[C@@H]1CN2CCC1CC2)c1csc(-c2ccc(F)cc2)n1` [Compound 2, (S)-quinuclidin-3-yl (2-(2-(4-fluorophenyl)thiazol-4-yl)propan-2-yl)carbamate], which “reduction in plasma GL-3” value (plasma GL-3; 26 weeks, matched comparison to placebo (−1.06 μg/mL, P<0.0001)) is on record?
Its value is -3.62 µg/mL.

And the “plasma GL-3 reduction compared to agalsidase beta” value (plasma GL-3; 104 weeks (p=0.0351) and 156 weeks (p=0.0081))?
The value was “significantly greater”.

What about the “day on which maximal sustained GM3 decreases start” value ([1]; all Compound 2 dose groups) of the same molecule?
Its value is 13 days.

And the “Plasma GL-3” value ([1]; all Compound 2 dose groups, low baseline values relative to LLOQ)?
Its value is “decreased with time”.

And the “plasma GL-1 and GM3 levels” value ([1]; healthy adults, 5, 10, 20 mg once daily 14 days)?
Its value is “decreased from baseline time- and dose-dependently”.

What about the “effect of a high-fat meal on Compound 2 exposure” value [2] of the same molecule?
Its value is “no effect”.

And the Vital signs [3, 9]?
Its Vital signs is “no relevant changes from baseline”.

And the “deaths, SAEs, severe TEAEs, discontinuations” value [3, 9]?
The value was “no deaths, SAEs, severe TEAEs, or TEAEs leading to study discontinuation”.

What about the “hematologic or biochemical abnormalities” value [3, 9] of the same molecule?
Its value is “No clinically relevant hematologic or biochemical abnormalities”.

And the ECG parameters ([3]; single ascending dose and food effect studies)?
Its ECG parameters is “no relevant changes”.

And the “patients showing regression of ILD” value [4]?
The value was 4 out of 5.

And the “CL/F, Geometric mean” value ([5]; single oral 2 mg)?
The value was 6.3 L/h.

And the “CL/F, Geometric mean” value ([5]; single oral 5 mg)?
Its value is 5.8 L/h.

And the “CL/F, Geometric mean” value ([5]; single oral 15 mg)?
Its value is 5.6 L/h.

What about the “CL/F, Geometric mean” value ([5]; single oral 25 mg) of the same molecule?
Its value is 5.0 L/h.

And the “CL/F, Geometric mean” value ([5]; single oral 50 mg)?
Its value is 5.5 L/h.

And the “CL/F, Geometric mean” value ([5]; single oral 100 mg)?
The value was 5.3 L/h.

What about the “CL/F, Geometric mean” value ([5]; single oral 150 mg) of the same molecule?
Its value is 5.6 L/h.

And the “CL/F, Mean” value ([5]; single oral 150 mg)?
Its value is 5.80 L/h.

And the “AUC0-24, Geometric mean (CV)” value [6, 10]?
Its value is 632 (19) ng · h/mL.

What about the “AUC0-24, Mean (SD)” value [6, 10] of the same molecule?
Its value is 642 (121) ng · h/mL.

And the “tmax, median (range)” value ([6]; healthy adults, 10 mg once daily, Day 1)?
Its value is 3.00 (2.00-5.00) h.

What about the “tmax, median (range)” value ([6]; healthy adults, 20 mg once daily, Day 14) of the same molecule?
Its value is 3.00 (2.00-8.00) h.

And the Ctrough values ([6]; healthy adults, 5, 10, or 20 mg once daily for 14 days)?
The Ctrough values was “reached a plateau after Day 5”.

What about the “effect of age and gender on accumulation” value [6, 11] of the same molecule?
Its value is “neither age nor gender affected accumulation”.

What about the “time to steady state” value [6, 11] of the same molecule?
Its value is at most 5 days.

What about the “levels of GL-3 inclusions in the skin” value ([7]; 15 mg/day) of the same molecule?
The value was “consistently reduces the levels of GL-3 inclusions in the skin”.

What about the “patients with a 1-point reduction in skin GL-3 score” value ([7]; by week 156, 15 mg/day oral) of the same molecule?
The value was “five”.

What about the “patients with complete clearance of GL-3 inclusions” value ([7]; by week 156, 15 mg/day oral) of the same molecule?
The value was “two”.

And the “patients with no change in skin GL-3 score” value ([7]; by week 156, 15 mg/day oral)?
Its value is “one”.

What about the systemic deterioration ([8]; 26 weeks, all patients) of the same molecule?
Its systemic deterioration is “absence of systemic deterioration”.

And the “changes in hemoglobin levels” value ([8]; 26 weeks)?
Its value is “no clinically meaningful changes”.

And the “patients with reductions in splenic volume of 10% or more” value ([8]; 26 weeks)?
The value was “Two”.

And the “changes in hemoglobin levels” value ([8]; Week 52)?
Its value is “no clinically meaningful changes”.

What about the “patients with spleen volume reductions” value ([8]; Week 52) of the same molecule?
The value was “two”.
